Results: patent US20230278972A1, “SUBSTITUTED HALOALKYL SULFONANILIDE HERBICIDES” (FMC Corporation, priority 2020, published 2023)

Assays:
Type in all cases: in vivo
soybean (Glycine max) [1] = experiment: Test A1 preemergence, soybean
Method in brief: (§1)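 Herbicidal response was scored on plants treated either preemergence, by directed spray onto soil of a loam–sand blend after sowing, or postemergence on potted plants at the one- to two-leaf stage, 2–10 cm high. Test chemicals were carried in a non-phytotoxic solvent mix with surfactant.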

[2] = tested on: barnyardgrass (Echinochloa crus-galli); experiment: Test B1 flooded paddy test, barnyardgrass; conditions: 250 g ai/ha, Flood, applied to paddy water, 2-leaf stage, visually evaluated after 10 to 14 days
Source text: (§2) A dash (-) response means no test result.

soybean (Glycine max) [3] = experiment: Test A1 postemergence, soybean; conditions: for Soybean plant response rating: postemergence; for Plant response rating, Soybean: Postemergence
Method in brief: as §1

kochia (Bassia scoparia) = experiment: Test A1 preemergence, kochia
Method in brief: as §1

rice (Oryza sativa) = experiment: Test B1 flooded paddy test, rice; conditions: 250 g ai/ha, Flood, applied to paddy water, 2-leaf stage, visually evaluated after 10 to 14 days
Source text: as §2

[4] = tested on: ragweed (common ragweed, Ambrosia artemisiifolia); experiment: Test A1 preemergence, ragweed
Method in brief: as §1

[5] = 31 g ai/ha, 0 to 100 scale (0 no effect, 100 complete control)
[6] = 125 g ai/ha, 0 to 100 scale, 0 no effect, 100 complete control
[7] = 31 g ai/ha, 0 to 100 scale (0 no effect, 100 complete control), 10 days

| SMILES | Plant response rating, Soybean (soybean (Glycine max) [1]; [5]) | Plant response rating, Soybean (soybean (Glycine max) [1]; [6]) | Plant response rating, Barnyardgrass (0 to 100 scale, 0 is no effect, 100 is complete control) [2] | Soybean plant response rating (soybean (Glycine max) [3]; [5]) | Plant response rating, Soybean (soybean (Glycine max) [3]; 125 g ai/ha, 0 to 100 scale) | Plant response rating, Kochia (kochia (Bassia scoparia); [5]) | Plant response rating, Kochia (kochia (Bassia scoparia); [6]) | Plant response rating, Rice (0 to 100 scale, 0 is no effect, 100 is complete control) (rice (Oryza sativa)) | Plant response rating, Ragweed [4, 5] | Plant response rating, Ragweed [4, 6] | Plant response rating, Soybean (soybean (Glycine max) [3]; [7]) |
| --- | --- | --- | --- | --- | --- | --- | --- | --- | --- | --- | --- |
| Cc1c(C(=O)N2C[C@@H](C)O[C@H](C)C2)cc(N(COC(=O)C(C)(C)C)S(=O)(=O)C(F)(F)F)c(C)c1C (relative stereo) [Compound 373] | 0 | 10 | 95 | 50 | 70 | 0 | 0 | 20 | 50 | 50 |  |
| CCOC(=O)N(c1cc(C(=O)N2C[C@@H](C)O[C@H](C)C2)c(C)c(C)c1C)S(=O)(=O)C(F)(F)F (relative stereo) [Compound 374] | 0 | 70 | 40 | 50 | 90 | 0 | 0 | 0 | 0 | 70 |  |
| Cc1c(NS(=O)(=O)C(F)(F)F)cc(C(=O)N2CCSCC2)c(C)c1C [Compound 283] | 0 | 50 | 15 |  | 60 | 30 | 90 | 0 | 0 | 40 | 40 |
| Cc1c(C(=O)N2CCSCC2)cc(N(COC(=O)C(C)(C)C)S(=O)(=O)C(F)(F)F)c(C)c1C [Compound 285] | 0 | 0 | 35 |  | 60 | 20 | 70 | 0 | 0 | 10 | 30 |
| CCOC(=O)N(c1cc(C(=O)N2CCSCC2)c(C)c(C)c1C)S(=O)(=O)C(F)(F)F [Compound 286] | 0 | 40 | 15 |  | 60 | 0 | 80 | 0 | 0 | 10 | 50 |
| Cc1c(NS(=O)(=O)C(F)(F)F)cc(C(=O)N2CCC(C)CC2)c(C)c1C [Compound 366] | 0 | 50 | 15 | 50 | 60 | 0 | 30 | 10 | 30 | 70 |  |
| COC1CCN(C(=O)c2cc(NS(=O)(=O)C(F)(F)F)c(C)c(C)c2C)CC1 [Compound 367] | 0 | 90 | 60 | 50 | 80 | 0 | 20 | 15 | 20 | 90 |  |
| Cc1c(C(=O)N2CCC(C)CC2)cc(N(COC(=O)C(C)(C)C)S(=O)(=O)C(F)(F)F)c(C)c1C [Compound 369] | 0 | 30 | 90 | 20 | 90 | 0 | 0 | 20 | 0 | 90 |  |
| COC1CCN(C(=O)c2cc(N(COC(=O)C(C)(C)C)S(=O)(=O)C(F)(F)F)c(C)c(C)c2C)CC1 [Compound 370] | 0 | 0 | 95 | 50 | 80 | 0 | 20 | 25 | 0 | 70 |  |
| C#CCN(C)C(=O)c1cc(N(COC(=O)C(C)(C)C)S(=O)(=O)C(F)(F)F)c(C)c(C)c1C [Compound 371] | 0 | 60 | 95 | 60 | 90 | 0 | 70 | 10 | 40 | 90 |  |
| Cc1cc(C)c(C2=NOC3OCCCC23)cc1NS(=O)(=O)C(F)(F)F (stereo not drawn) [Compound 372] | 0 | 50 | 20 | 30 | 60 | 0 | 70 | 10 | 0 | 70 |  |
| CCC1CC(c2cc(NS(=O)(=O)C(F)(F)F)c(C)cc2C)=NO1 (stereo not drawn) [Compound 375] | 0 | 30 | 50 | 30 | 60 | 0 | 70 | 15 | 0 | 20 |  |
| CCC1CC(c2cc(N(COC(=O)C(C)(C)C)S(=O)(=O)C(F)(F)F)c(C)cc2C)=NO1 (stereo not drawn) [Compound 376] | 0 | 0 | 95 | 20 | 100 | 0 | 80 | 20 | 0 | 0 |  |
| Cc1ccc(C2=NOC3CCCC23)cc1NS(=O)(=O)C(F)(F)F (stereo not drawn) [Compound 377] | 0 | 0 | 0 | 0 | 30 | 0 | 20 | 0 | 0 | 0 |  |
| CCc1cc(C)c(N(COC(=O)C(C)(C)C)S(=O)(=O)C(F)(F)F)cc1C1=NOC2CCCC12 (stereo not drawn) [Compound 378] | 0 | 0 | 95 | 0 | 20 | 0 | 20 | 10 | 0 | 0 |  |
